These results are taken from patent publication US11267826B2, “Penicillin-binding protein inhibitors” (priority 2017, dated 2022).

As a reminder, the MIC is the lowest concentration found to suppress growth.

Like-named read-outs stand apart in the source and are kept apart here. Bounds are passed on as bounds.

The test system of assay [1] is hyper-permeable E. coli 901C. Nature of the assay: Broth microdilution MIC assay, hyper-permeable E. coli. The note with it: Escherichia coli, read-out: E. coli 901C MIC. The assay is classed as cell-based. As to the method:
(§1) To determine the ability of test compounds to potentiate the inhibition of the growth of bacterial strains, classic cell based broth microdilution MIC assays were employed. MIC assays are performed according to CLSI methods except where otherwise noted (CLSI, 2011 and CLSI, 2009). The reference strain S. aureus ATCC 29213 and the hyper-permeable E. coli 901C were used to determine the ability of the PBP compounds to inhibit bacterial growth. Briefly, cryo-preserved bacterial cultures of clinical strains are streaked for isolation on appropriate agar medium, in this case Mueller Hinton II agar. Following incubation to allow formation of colonies these plates are sealed with parafilm and stored refrigerated for up to two weeks. For preparation of assay inocula and to ensure low variability, at least 5 colonies are picked from the agar plates with an inoculating loop and aseptically transferred to a culture tube containing 3 mL of Mueller-Hinton Broth (supplemented with divalent cations to required levels based on Manufacturers' certification). The broth culture is grown for 3-5 hours at 37° C. with shaking at 200 rpm. Meanwhile, 2-fold serial dilutions of test compounds are conducted in a 96 well plate with a final volume of 75 μL per well at 2-fold the final desired concentration. After the dilution plates are set up the growing cultures are then diluted in a cuvette containing MH II broth and the optical density is measured at 600 nm. Inocula are diluted such that 75 μL of this culture in Mueller-Hinton Broth results in a starting bacterial concentration of 5×10^5 CFU/mL when added to the dilution plates. The plates are incubated 16-20 hours at 37° C. The MIC is read visually as the lowest concentration well with no bacterial growth.
On the technique in general: Broth dilution looks for growth in wells or tubes with falling amounts of substance.

The test system of assay [2] is S. aureus ATCC 29213. Nature of the assay: Broth microdilution MIC assay, S. aureus. The assay is classed as cell-based. The settings on record: Staphylococcus aureus. As to the method:
as §1

Where [3] appears, read: ATCC29213, broth microdilution, 16-20 hours at 37° C., read-out: S. aureus 29213 MIC.

Turning to `Nc1nc(/C(=N/OC2CCNCC2)C(=O)N[C@H]2Cc3cccc(C(=O)O)c3OB2O)cs1` [Example 51, (R,Z)-3-(2-(2-aminothiazol-4-yl)-2-((piperidin-4-yloxy)imino)acetamido)-2-hydroxy-3,4-dihydro-2H-benzo[e][1,2]oxaborinine-8-carboxylic Acid], the minimum inhibitory concentration (MIC) in assay [1] is 64 to 128 µg/mL; in assay [2] (setting [3]) it was above 128 µg/mL.
In the case of `Nc1nc(/C(=N/OCC(=O)O)C(=O)N[C@H]2Cc3cccc(C(=O)O)c3OB2O)cs1` [Example 18, (R,Z)-3-(2-(2-aminothiazol-4-yl)-2-((carboxymethoxy)imino)acetamido)-2-hydroxy-3,4-dihydro-2H-benzo[e][1,2]oxaborinine-8-carboxylic Acid], the minimum inhibitory concentration (MIC) is below 64 µg/mL in assay [1] and above 128 µg/mL in assay [2] (setting [3]).
Taken in the same sequence, the figures for `O=C(N[C@H]1Cc2cccc(C(=O)O)c2OB1O)/C(=N\O)c1cscn1` [Example 90, (R,Z)-2-hydroxy-3-(2-(hydroxyimino)-2-(thiazol-4-yl)acetamido)-3,4-dihydro-2H-benzo[e][1,2]oxaborinine-8-carboxylic Acid] were 64 to 128 µg/mL and below 64 µg/mL.
For the compound `CO/N=C(\C(=O)N[C@H]1Cc2cccc(C(=O)O)c2OB1O)c1nsc(N)n1` [Example 2, (R,Z)-3-(2-(5-amino-1,2,4-thiadiazol-3-yl)-2-(methoxyimino)acetamido)-2-hydroxy-3,4-dihydro-2H-benzo[e][1,2]oxaborinine-8-carboxylic Acid], the results for the MIC in assay [1] and in assay [2] (setting [3]) were below 64 µg/mL and above 128 µg/mL, respectively.
Consider `Nc1nc(/C(=N/O)C(=O)N[C@H]2Cc3cccc(C(=O)O)c3OB2O)ns1` [Example 19, (R,Z)-3-(2-(5-amino-1,2,4-thiadiazol-3-yl)-2-(hydroxyimino)acetamido)-2-hydroxy-3,4-dihydro-2H-benzo[e][1,2]oxaborinine-8-carboxylic Acid], for which the values for the MIC in assay [1] and in assay [2] (setting [3]) were above 128 µg/mL and 64 to 128 µg/mL, respectively.
`COc1cc2c(c(C(=O)O)c1)OB(O)[C@@H](NC(=O)/C(=N\OC(C)(C)C(=O)O)c1csc(N)n1)C2` [Example 79, (R,Z)-3-(2-(2-aminothiazol-4-yl)-2-(((2-carboxypropan-2-yl)oxy)imino)acetamido)-2-hydroxy-6-methoxy-3,4-dihydro-2H-benzo[e][1,2]oxaborinine-8-carboxylic Acid]: the MIC was below 64 µg/mL in assay [1] and above 128 µg/mL in assay [2] (setting [3]).
As to `Nc1nc(C(CC(=O)O)C(=O)N[C@H]2Cc3cccc(C(=O)O)c3OB2O)cs1` (mixture of isomers) [Example 99, (3R)-3-(2-(2-aminothiazol-4-yl)-3-carboxypropanamido)-2-hydroxy-3,4-dihydro-2H-benzo[e][1,2]oxaborinine-8-carboxylic Acid], the figures for the MIC in assay [1] and in assay [2] (setting [3]) were 64 to 128 µg/mL and above 128 µg/mL, respectively.
Regarding `N=C(N)Nc1nc(/C(=N/O)C(=O)N[C@H]2Cc3cccc(C(=O)O)c3OB2O)cs1` [Example 11, (R,Z)-3-(2-(2-guanidinothiazol-4-yl)-2-(hydroxyimino)acetamido)-2-hydroxy-3,4-dihydro-2H-benzo[e][1,2]oxaborinine-8-carboxylic Acid], the MIC in assay [1] is above 128 µg/mL; in assay [2] (setting [3]), below 64 µg/mL.
In the case of `CC(C)CO/N=C(\C(=O)N[C@H]1Cc2cccc(C(=O)O)c2OB1O)c1csc(N)n1` [Example 100, (R,Z)-3-(2-(2-aminothiazol-4-yl)-2-(isobutoxyimino)acetamido)-2-hydroxy-3,4-dihydro-2H-benzo[e][1,2]oxaborinine-8-carboxylic Acid], the MIC in assay [1] and in assay [2] (setting [3]) was below 64 µg/mL in each case.
For the compound `Nc1nc(/C(=N/O)C(=O)N[C@H]2Cc3ccc(CN4CCCC4)c(C(=O)O)c3OB2O)cs1` [Example 25, (R,Z)-3-(2-(2-aminothiazol-4-yl)-2-(hydroxyimino)acetamido)-2-hydroxy-7-(pyrrolidin-1-ylmethyl)-3,4-dihydro-2H-benzo[e][1,2]oxaborinine-8-carboxylic Acid], the MIC in assay [1] is above 128 µg/mL; in assay [2] (setting [3]), below 64 µg/mL.
With `CO/N=C(\C(=O)N[C@H]1Cc2cccc(C(=O)O)c2OB1O)c1cccnc1` [Example 4, (R,Z)-2-hydroxy-3-(2-(methoxyimino)-2-(pyridin-3-yl)acetamido)-3,4-dihydro-2H-benzo[e][1,2]oxaborinine-8-carboxylic Acid], the values for the minimum inhibitory concentration (MIC) in assay [1] and in assay [2] (setting [3]) were above 128 µg/mL and 64 to 128 µg/mL, respectively.
As to `CC(O/N=C(\C(=O)N[C@H]1Cc2cccc(C(=O)O)c2OB1O)c1csc(N)n1)C(=O)NCCNCCN` (stereo partly drawn) [Example 104, (3R)-3-((Z)-12-amino-2-(2-aminothiazol-4-yl)-5-methyl-6-oxo-4-oxa-3,7,10-triazadodec-2-enamido)-2-hydroxy-3,4-dihydro-2H-benzo[e][1,2]oxaborinine-8-carboxylic Acid], the minimum inhibitory concentration (MIC) in assay [1] is below 64 µg/mL; in assay [2] (ATCC29213, read-out: S. aureus 29213 MIC) it was above 128 µg/mL.
As for `CNc1nc(/C(=N/OCc2ccccc2)C(=O)N(C)[C@H]2Cc3cccc(C(=O)O)c3OB2O)cs1` [Example 23, (R,Z)-3-(2-((benzyloxy)imino)-N-methyl-2-(2-(methylamino)thiazol-4-yl)acetamido)-2-hydroxy-3,4-dihydro-2H-benzo[e][1,2]oxaborinine-8-carboxylic Acid], the MIC in assay [1] and in assay [2] (setting [3]) was above 128 µg/mL each time.
Consider `O=C(N[C@H]1Cc2cccc(C(=O)O)c2OB1O)C(=NO)c1csc(-n2ccnc2)n1` [Example 93, (R)-3-(2-(2-(1H-imidazol-1-yl)thiazol-4-yl)-2-(hydroxyimino)acetamido)-2-hydroxy-3,4-dihydro-2H-benzo[e][1,2]oxaborinine-8-carboxylic Acid], for which the MIC in assay [1] was above 128 µg/mL; in assay [2] (setting [3]) it was below 64 µg/mL.
For `Nc1nc(/C(=N/OCC(F)F)C(=O)N[C@H]2Cc3cccc(C(=O)O)c3OB2O)cs1` [Example 114, (R,Z)-3-(2-(2-aminothiazol-4-yl)-2-((2,2-difluoroethoxy)imino)acetamido)-2-hydroxy-3,4-dihydro-2H-benzo[e][1,2]oxaborinine-8-carboxylic Acid], the MIC was below 64 µg/mL in assay [1] and 64 to 128 µg/mL in assay [2] (setting [3]).
Taken in the same sequence, the figures for `Nc1cccc(/C(=N/O)C(=O)N[C@H]2Cc3cccc(C(=O)O)c3OB2O)n1` [Example 16, (R,Z)-3-(2-(6-aminopyridin-2-yl)-2-(hydroxyimino)acetamido)-2-hydroxy-3,4-dihydro-2H-benzo[e][1,2]oxaborinine-8-carboxylic Acid] were 64 to 128 µg/mL and below 64 µg/mL.
Take `O=C(N[C@H]1Cc2cccc(C(=O)O)c2OB1O)/C(Cn1nccn1)=N\O` [Example 127, (R,Z)-2-hydroxy-3-(2-(hydroxyimino)-3-(2H-1,2,3-triazol-2-yl)propanamido)-3,4-dihydro-2H-benzo[e][1,2]oxaborinine-8-carboxylic Acid]: the MIC in assay [1] and in assay [2] (setting [3]) was above 128 µg/mL throughout.
With `O=C(N[C@H]1Cc2cccc(C(=O)O)c2OB1O)/C(=N\O)c1ccc2c(c1)CNC2` [Example 8, (R,Z)-2-hydroxy-3-(2-(hydroxyimino)-2-(isoindolin-5-yl)acetamido)-3,4-dihydro-2H-benzo[e][1,2]oxaborinine-8-carboxylic Acid], the MIC in assay [1] and in assay [2] (setting [3]) was below 64 µg/mL each time.
For `Nc1nc(/C(=N/O)C(=O)N[C@H]2Cc3ccc(CCC(=O)O)c(C(=O)O)c3OB2O)cs1` [Example 28, (R,Z)-3-(2-(2-aminothiazol-4-yl)-2-(hydroxyimino)acetamido)-7-(2-carboxyethyl)-2-hydroxy-3,4-dihydro-2H-benzo[e][1,2]oxaborinine-8-carboxylic Acid], the MIC in assay [1] and in assay [2] (setting [3]) was above 128 µg/mL in each case.
Consider `Nc1cc(/C(=N/O)C(=O)N[C@H]2Cc3cccc(C(=O)O)c3OB2O)ccn1` [Example 14, (R,Z)-3-(2-(2-aminopyridin-4-yl)-2-(hydroxyimino)acetamido)-2-hydroxy-3,4-dihydro-2H-benzo[e][1,2]oxaborinine-8-carboxylic Acid], for which the MIC in assay [1] was above 128 µg/mL; in assay [2] (setting [3]), below 64 µg/mL.
Regarding `O=C(N[C@H]1Cc2cccc(C(=O)O)c2OB1O)/C(=N\O)c1csc(NCCO)n1` [Example 102, (R,Z)-2-hydroxy-3-(2-(2-((2-hydroxyethyl)amino)thiazol-4-yl)-2-(hydroxyimino)acetamido)-3,4-dihydro-2H-benzo[e][1,2]oxaborinine-8-carboxylic Acid], the MIC in assay [1] and in assay [2] (setting [3]) was above 128 µg/mL throughout.
`CCCO/N=C(\C(=O)N[C@H]1Cc2cccc(C(=O)O)c2OB1O)c1csc(N)n1` [Example 98, (R,Z)-3-(2-(2-aminothiazol-4-yl)-2-(propoxyimino)acetamido)-2-hydroxy-3,4-dihydro-2H-benzo[e][1,2]oxaborinine-8-carboxylic Acid]: the minimum inhibitory concentration (MIC) in assay [1] and in assay [2] (setting [3]) was below 64 µg/mL in each case.
On to `NCCNc1nc(/C(=N/O)C(=O)N[C@H]2Cc3cccc(C(=O)O)c3OB2O)cs1` [Example 10, (R,Z)-3-(2-(2-((2-aminoethyl)amino)thiazol-4-yl)-2-(hydroxyimino)acetamido)-2-hydroxy-3,4-dihydro-2H-benzo[e][1,2]oxaborinine-8-carboxylic Acid], for which the MIC in assay [1] is above 128 µg/mL; in assay [2] (setting [3]) it was 64 to 128 µg/mL.
